From patent USRE47689E1, “Compounds for treating spinal muscular atrophy” (PTC Therapeutics, Inc., priority 2011, dated 2019) come the findings set out here.

Each structure is given as a SMILES string. Bounds are passed on as bounds.

Assay [1] has as its system SMN2 minigene (full length SMN2 minigene mRNA containing SMN2 exon 7). The experiment in a line: SMN2 minigene mRNA splicing RT-qPCR assay in cultured cells. The conditions noted are these: HEK293H cells stably transfected with SMN2-A minigene, 24 hours, 7-point concentration curve, 1.5-fold relative to vehicle-treated cells; for EC (1.5-fold): Homo sapiens, HEK293-H, read-out: EC1.5x for production of full length SMN2 mRNA. It is filed as cell-based, human. The gist of the method:
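Lysates → one-step RT-qPCR, minigene-specific primers (0.4 μM final) + GAPDH multiplex, 40 cycles. FL/GAPDH vs DMSO; EC1.5x, star-binned.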
(In general: Quantitative PCR measures a nucleic acid by following its amplification.)

For another assay, the system named is Smn protein. The experiment in a line: Smn protein assay in cultured cells (SMN HTRF). Format: cell-based, human. The conditions noted are these: 48 hours; for maximum fold (Fold) increase of Smn protein: SMA patient fibroblast cells, 7-point concentration data, fold increase relative to vehicle control (SMN HTRF); for EC1.5x (concentration giving 1.5-fold Smn protein increase): SMA Type 1 patient fibroblast cells (GM03813), 7-point concentration curve, SMN HTRF, concentration producing 1.5 times Smn protein vs DMSO vehicle control, read-out: EC1.5x for Smn protein expression. The gist of the method:
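Smn in SMA fibroblast lysates, measured by anti-SMN HTRF after 48 h compound exposure; EC1.5x from fold change over vehicle.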

For the compound `CC1CN(c2ccc3cc(-c4nc5ccccc5o4)c(=O)oc3c2)C(C)CN1` (centres unmarked) [Compound 86, 3-(1,3-benzoxazol-2-yl)-7-(2,5-dimethylpiperazin-1-yl)-2H-chromen-2-one], the EC (1.5-fold) in assay [1] lay in the range of 3 to 30 µM. The “maximum fold (Fold) increase of Smn protein” value (shortened to “maximum fold (Fold) increase”) with Smn protein is reported as “* (maximum fold increase of ≤1.2)”.
`Cc1cn2cc(-c3cc4ccc(N5CCN[C@H](C)C5)cc4oc3=O)nc2c(C)n1` [Cpd 536, 3-(6,8-dimethylimidazo[1,2-a]pyrazin-2-yl)-7-[(3R)-3-methylpiperazin-1-yl]-2H-chromen-2-one]: in assay [1], the EC (1.5-fold) was under 0.1 µM. Moreover, in the assay with Smn protein, the EC1.5x (concentration giving 1.5-fold Smn protein increase) was under 300 nM and the “maximum fold (Fold) increase” value is listed as “***** (fold increase >1.65)”.
For the compound `Cc1cc2sc(-c3cc4ccc(N5CCNCC5)cc4oc3=O)cc2c(C)n1` [Compound 817, 3-(4,6-dimethylthieno[3,2-c]pyridin-2-yl)-7-(piperazin-1-yl)-2H-chromen-2-one], the EC (1.5-fold) in assay [1] was under 0.1 µM. For the same compound, the “maximum fold (Fold) increase” value in the assay with Smn protein was “** (fold increase between >1.2 and ≤1.35)”.
With `Cc1cn2cc(-c3cc4ccc(C5CCN(C)CC5)cc4oc3=O)nc2c(C)n1` [Compound 748, 3-(6,8-dimethylimidazo[1,2-a]pyrazin-2-yl)-7-(1-methylpiperidin-4-yl)-2H-chromen-2-one], in assay [1], the EC (1.5-fold) was under 0.1 µM. Also, in the assay on Smn protein, the EC1.5x (concentration giving 1.5-fold Smn protein increase) is under 300 nM and the “maximum fold (Fold) increase” value is listed as “***** (fold increase >1.65)”.
For `Cc1cn2cc(-c3cc4ccc(N5CCN(CCO)[C@@H](C)C5)cc4oc3=O)nc2c(C)n1` [Compound 888, 3-(6,8-dimethylimidazo[1,2-a]pyrazin-2-yl)-7-[(3S)-4-(2-hydroxyethyl)-3-methylpiperazin-1-yl]-2H-chromen-2-one], the EC (1.5-fold) in assay [1] is under 0.1 µM. In addition, in the assay on Smn protein, the EC1.5x (concentration giving 1.5-fold Smn protein increase) is under 300 nM and the “maximum fold (Fold) increase” value is “***** (fold increase >1.65)”.
The matching figures for `Cc1cn2cc(-c3cc4ccc(N5CCN(C)CC5)cc4oc3=O)cc(F)c2n1` [Compound 982, 3-(8-fluoro-2-methylimidazo[1,2-a]pyridin-6-yl)-7-(4-methylpiperazin-1-yl)-2H-chromen-2-one]: under 0.1 µM, under 300 nM and “***** (fold increase >1.65)”.
The matching figures for `Cc1cn2cc(-c3cc4ccc(O[C@@H]5CCNC5)cc4oc3=O)nc2c(C)n1` [Compound 601, 3-(6,8-dimethylimidazo[1,2-a]pyrazin-2-yl)-7-[(3R)-pyrrolidin-3-yloxy]-2H-chromen-2-one]: under 0.1 µM, under 300 nM and “***** (fold increase >1.65)”.
In the case of `Cc1csc2nc(-c3cc4ccc(N5CCNCC5)cc4oc3=O)cn12.Cl.Cl.Cl` [Compound 141, 3-(3-methylimidazo[2,1-b][1,3]thiazol-6-yl)-7-(piperazin-1-yl)-2H-chromen-2-one hydrochloride (1:3)], in assay [1], the “EC1.5x for production of full length SMN2 mRNA” value was “** (between >1 μM and ≤3 μM)”. Besides, the “maximum fold (Fold) increase” value with Smn protein is recorded as “* (maximum fold increase of ≤1.2)”.
As for `Cc1cn2cc(-c3cc4ccc(N5CC6(CC(N)C6)C5)cc4oc3=O)nc2c(C)n1` [Compound 977, 7-(6-amino-2-azaspiro[3.3]hept-2-yl)-3-(6,8-dimethylimidazo[1,2-a]pyrazin-2-yl)-2H-chromen-2-one], in assay [1], the EC (1.5-fold) lay in the range of 1 to 3 µM. Besides, the “maximum fold (Fold) increase” value with Smn protein is listed as “* (maximum fold increase of ≤1.2)”.
`Cc1cn2cc(-c3cc4ccc(N5CCN6CCC[C@H]6C5)cc4oc3=O)cc(F)c2n1` [Compound 983, 3-(8-fluoro-2-methylimidazo[1,2-a]pyridin-6-yl)-7-[(8aS)-hexahydropyrrolo[1,2-a]pyrazin-2(1H)-yl]-2H-chromen-2-one]: the EC (1.5-fold) in assay [1] was under 0.1 µM. Also, in the assay on Smn protein, the EC1.5x (concentration giving 1.5-fold Smn protein increase) is under 300 nM and the “maximum fold (Fold) increase” value is listed as “***** (fold increase >1.65)”.
With `Cc1ccn2cc(-c3cc4ccc(N5CCN(C)CC5)cc4oc3=O)nc2n1` [Compound 224, 3-(7-methylimidazo[1,2-a]pyrimidin-2-yl)-7-(4-methylpiperazin-1-yl)-2H-chromen-2-one], in assay [1], the EC (1.5-fold) was 0.3 to 1 µM. In the assay on Smn protein, the “maximum fold (Fold) increase” value is reported as “* (maximum fold increase of ≤1.2)”.
For the compound `O=C(O)C(F)(F)F.O=c1oc2cc(N3CCNCC3)ccc2cc1-c1nc2cccc(C(F)(F)F)c2o1` [Compound 2, 7-(piperazin-1-yl)-3[7-(trifluoromethyl)-1,3-benzoxazol-2-yl]-2H-chromen-2-one trifluoroacetate], the EC (1.5-fold) in assay [1] lay within 0.3 to 1 µM. The “maximum fold (Fold) increase” value with Smn protein is on record as “* (maximum fold increase of ≤1.2)”.
`Cc1cn2cc(-c3cc4ccc(N5CCN[C@@H](C)C5)cc4oc3=O)ccc2n1` [Compound 664, 3-(2-methylimidazo[1,2-a]pyridin-6-yl)-7-[(3S)-3-methylpiperazin-1-yl]-2H-chromen-2-one]: in assay [1], the EC (1.5-fold) was under 0.1 µM. In addition, in the assay on Smn protein, the EC1.5x (concentration giving 1.5-fold Smn protein increase) is under 300 nM and the “maximum fold (Fold) increase” value is on record as “***** (fold increase >1.65)”.
`Cc1cc2cc(-c3cc4ccc(N5CCN(CC6CC6)CC5)cc4oc3=O)oc2c(C)n1` [Compound 816, 7-[4-(cyclopropylmethyl)piperazin-1-yl]-3-(5,7-dimethylfuro[2,3-c]pyridin-2-yl)-2H-chromen-2-one]: the EC (1.5-fold) in assay [1] is under 0.1 µM. In addition, in the assay with Smn protein, the EC1.5x (concentration giving 1.5-fold Smn protein increase) fell in the range of 300 to 1000 nM; the “maximum fold (Fold) increase” value was “**** (fold increase between >1.5 and ≤1.65)”.
For the compound `CN1CCN(c2ccc3cc(-c4nc5ncccc5o4)c(=O)oc3c2)CC1` [Compound 111, 7-(4-methylpiperazin-1-yl)-3-([1,3]oxazolo[4,5-b]pyridin-2-yl)-2H-chromen-2-one], the EC (1.5-fold) in assay [1] was in the range of 3 to 30 µM. The “maximum fold (Fold) increase” value in the assay on Smn protein is “** (fold increase between >1.2 and ≤1.35)”.
As to `Cc1cn2cc(-c3cc4ccc(N5C[C@@H]6C[C@H]5CN6)cc4oc3=O)nc2c(C)n1` [Compound 648, 7-[(1S,4S)-2,5-diazabicyclo[2.2.1]hept-2-yl]-3-(6,8-dimethylimidazo[1,2-a]pyrazin-2-yl)-2H-chromen-2-one], the EC (1.5-fold) in assay [1] was under 0.1 µM. Moreover, in the assay with Smn protein, the EC1.5x (concentration giving 1.5-fold Smn protein increase) is under 300 nM and the “maximum fold (Fold) increase” value was “***** (fold increase >1.65)”.
For `O=c1oc2cc(N3CCNCC3)ccc2cc1-c1cn2ccc(C(F)(F)F)cc2n1` [Compound 114, 7-(piperazin-1-yl)-3-[7-(trifluoromethyl)imidazo[1,2-a]pyridin-2-yl]-2H-chromen-2-one], the EC (1.5-fold) in assay [1] was under 0.1 µM. In addition, the “maximum fold (Fold) increase” value with Smn protein is “** (fold increase between >1.2 and ≤1.35)”.
As to `CSc1nccn2cc(-c3cc4ccc(N5CCNCC5)cc4oc3=O)nc12` [Cpd 398, 3-[8-(methylsulfanyl)imidazo[1,2-a]pyrazin-2-yl]-7-(piperazin-1-yl)-2H-chromen-2-one], the EC (1.5-fold) in assay [1] lay within 1 to 3 µM. The “maximum fold (Fold) increase” value in the assay on Smn protein was “* (maximum fold increase of ≤1.2)”.
For the compound `Cl.O=c1oc2cc(N3CCNCC3)ccc2cc1-c1nc2c(F)cccc2o1` [Compound 40, 3-(4-fluoro-1,3-benzoxazol-2-yl)-7-(piperazin-1-yl)-2H-chromen-2-one hydrochloride], the EC (1.5-fold) in assay [1] is 1 to 3 µM. For the same compound, the “maximum fold (Fold) increase” value with Smn protein is “** (fold increase between >1.2 and ≤1.35)”.
Turning to `CCN1CCCN(c2ccc3cc(-c4cn5cc(C)ncc5n4)c(=O)oc3c2)CC1` [Compound 618, 7-(4-ethyl-1,4-diazepan-1-yl)-3-(6-methylimidazo[1,2-a]pyrazin-2-yl)-2H-chromen-2-one], the EC (1.5-fold) in assay [1] is under 0.1 µM. For the same compound, in the assay with Smn protein, the EC1.5x (concentration giving 1.5-fold Smn protein increase) is under 300 nM; the “maximum fold (Fold) increase” value is “**** (fold increase between >1.5 and ≤1.65)”.
As for `Cc1nccn2cc(-c3cc4ccc(N5CCN[C@H](C)C5)cc4oc3=O)nc12` [Compound 559, 3-(8-methylimidazo[1,2-a]pyrazin-2-yl)-7-[(3R)-3-methylpiperazin-1-yl]-2H-chromen-2-one], the EC (1.5-fold) in assay [1] was in the range of 0.3 to 1 µM. In addition, the “maximum fold (Fold) increase” value with Smn protein was “*** (fold increase between >1.35 and ≤1.5)”.
In the case of `Cc1cc2oc(-c3cc4ccc(N5CCN(C)CC5)cc4oc3=O)cc2c(C)n1` [Compound 832, 3-(4,6-dimethylfuro[3,2-c]pyridin-2-yl)-7-(4-methylpiperazin-1-yl)-2H-chromen-2-one], in assay [1], the EC (1.5-fold) was 1 to 3 µM. Also, the “maximum fold (Fold) increase” value in the assay with Smn protein was “* (maximum fold increase of ≤1.2)”.
With `CC(C)(C)OC(=O)N[C@H]1CCN(c2ccc3cc(-c4cn5cc(Cl)ccc5n4)c(=O)oc3c2)C1` [Compound 106, tert-butyl {(3S)-1-[3-(6-chloroimidazo[1,2-a]pyridin-2-yl)-2-oxo-2H-chromen-7-yl]pyrrolidin-3-yl}carbamate], the EC (1.5-fold) in assay [1] lay in the range of 3 to 30 µM. The “maximum fold (Fold) increase” value with Smn protein was “* (maximum fold increase of ≤1.2)”.
In the case of `Cc1cn2cc(-c3cc4ccc(CCNCCO)cc4oc3=O)nc2c(C)n1` [Compound 870, 3-(6,8-dimethylimidazo[1,2-a]pyrazin-2-yl)-7-{2-[(2-hydroxyethyl)amino]ethyl}-2H-chromen-2-one], in assay [1], the EC (1.5-fold) is under 0.1 µM. Besides, in the assay on Smn protein, the EC1.5x (concentration giving 1.5-fold Smn protein increase) is under 300 nM; the “maximum fold (Fold) increase” value was “**** (fold increase between >1.5 and ≤1.65)”.
